Molecular target: T1, hTLR9 (Homo sapiens, UniProt Q9NR96)
T1 sequence (Q9NR96 26-1032): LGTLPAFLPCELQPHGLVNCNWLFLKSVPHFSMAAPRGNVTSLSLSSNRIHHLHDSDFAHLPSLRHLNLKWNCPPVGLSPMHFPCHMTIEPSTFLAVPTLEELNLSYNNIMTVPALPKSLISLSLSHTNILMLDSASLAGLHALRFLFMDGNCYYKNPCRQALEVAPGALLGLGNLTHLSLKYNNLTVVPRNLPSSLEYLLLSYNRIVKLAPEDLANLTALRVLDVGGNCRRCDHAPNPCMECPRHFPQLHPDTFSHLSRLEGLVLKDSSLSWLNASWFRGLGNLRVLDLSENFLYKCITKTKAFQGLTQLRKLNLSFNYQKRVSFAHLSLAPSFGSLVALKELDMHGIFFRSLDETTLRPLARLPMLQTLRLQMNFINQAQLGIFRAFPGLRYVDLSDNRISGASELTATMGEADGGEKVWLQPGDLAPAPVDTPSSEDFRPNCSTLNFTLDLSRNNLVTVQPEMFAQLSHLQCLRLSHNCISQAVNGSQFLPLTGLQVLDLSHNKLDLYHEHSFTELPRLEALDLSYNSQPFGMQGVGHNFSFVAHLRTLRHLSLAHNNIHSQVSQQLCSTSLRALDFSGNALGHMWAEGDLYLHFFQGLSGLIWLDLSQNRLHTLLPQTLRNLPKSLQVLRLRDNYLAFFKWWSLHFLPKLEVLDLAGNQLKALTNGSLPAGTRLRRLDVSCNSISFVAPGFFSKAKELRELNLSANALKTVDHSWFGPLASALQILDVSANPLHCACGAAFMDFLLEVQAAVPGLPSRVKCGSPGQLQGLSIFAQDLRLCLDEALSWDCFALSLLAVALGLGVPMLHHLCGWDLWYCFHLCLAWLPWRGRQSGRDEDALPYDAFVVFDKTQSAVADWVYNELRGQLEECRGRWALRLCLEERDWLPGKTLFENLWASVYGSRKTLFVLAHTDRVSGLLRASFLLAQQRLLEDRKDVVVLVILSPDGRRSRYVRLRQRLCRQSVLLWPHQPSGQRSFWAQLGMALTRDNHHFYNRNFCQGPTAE
Assay: HEK293-Blue-hTLR-9 cells assay
Assay type: cell-based
Conditions: HEK293-Blue-hTLR9 cells, ODN2006 stimulation, 20 hrs, SEAP reporter; read-out: HEK/hTLR9 IC50
Source text: HEK293-Blue-hTLR-9 cells assay: A stable HEK293-Blue-hTLR-9 cell line was purchased from InvivoGen (Cat. #: hkb-htlr9, San Diego, California, USA). These cells were originally designed for studying the stimulation of human TLR9 by monitoring the activation of NF-κB. A SEAP (secreted embryonic alkaline phosphatase) reporter gene was placed under the control of the IFN-β minimal promoter fused to five NF-κB and AP-1-binding sites. The SEAP was induced by activating NF-κB and AP-1 via stimulating HEK-Blue hTLR9 cells with TLR9 ligands. Therefore the reporter expression was declined by TLR9 antagonist under the stimulation of a ligand, such as ODN2006 (Cat. #: tlrl-2006-1, Invivogen, San Diego, California, USA), for incubation of 20 hrs. The cell culture supernatant SEAP reporter activity was determined using QUANTI-Blue™ kit (Cat. #: rep-qb1, Invivogen, San Diego, California, USA) at a wavelength of 640 nm, a detection medium that turns purple or blue in the presence of alkaline phosphatase.
HEK293-Blue-hTLR9 cells were incubated at a density of 250,000˜450,000 cells/mL in a volume of 170 μL in a 96-well plate in Dulbecco's Modified Eagle's medium (DMEM) containing 4.5 g/L glucose, 50 U/mL penicillin, […], 2 mM L-glutamine, 10% (v/v) heat-inactivated fetal bovine serum with addition of 20 μL test compound in a serial dilution in the presence of final DMSO at 1% and 10 μL of 20 uM ODN2006 in above DMEM, perform incubation under 37° C. in a CO2 incubator for 20 hrs. Then 20 μL of the supernatant from each well was incubated with 180 μL Quanti-blue substrate solution at 37° C. for 2 h and the absorbance was read at 620-655 nm using a spectrophotometer. The signaling pathway that TLR9 activation leads to downstream NF-κB activation has been widely accepted, and therefore similar reporter assay was modified for evaluating TLR9 antagonist.

C[C@@H]1CN(c2ccc(C#N)n3ncc(F)c23)C[C@H](CN2CC3(C2)OCc2cc(N4CC(C)(N)C4)ccc23)O1 [Example 1, 4-[(2S,6R)-2-[[6-(3-amino-3-methyl-azetidin-1-yl)spiro[1H-isobenzofuran-3,3′-azetidine]-1′-yl]methyl]-6-methyl-morpholin-4-yl]-3-fluoro-pyrazolo[1,5-a]pyridine-7-carbonitrile] and C[C@@H]1CN(c2ccc(C#N)n3ncc(F)c23)C[C@H](CN2CC3(C2)OCc2cc(N4CC[C@](C)(N)C4)ccc23)O1 [Example 5, 4-[(2S,6R)-2-[[6-[(3S)-3-amino-3-methyl-pyrrolidin-1-yl]spiro[1H-isobenzofuran-3,3′-azetidine]-1′-yl]methyl]-6-methyl-morpholin-4-yl]-3-fluoro-pyrazolo[1,5-a]pyridine-7-carbonitrile] are within 1.5-fold of each other in IC50: 0.131 µM for the first, 0.094 µM for the second.

First: C[C@@H]1CN(c2ccc(C#N)n3ncc(F)c23)C[C@H](CN2CC3(C2)OCc2cc(N4CC5(CN(C)C5)C4)ccc23)O1 [Example 2, 3-fluoro-4-[(2R,6S)-2-methyl-6-[[6-(6-methyl-2,6-diazaspiro[3.3]heptan-2-yl)spiro[1H-isobenzofuran-3,3′-azetidine]-1′-yl]methyl]morpholin-4-yl]pyrazolo[1,5-a]pyridine-7-carbonitrile]
Second: C[C@@H]1CN(c2ccc(C#N)n3ncc(F)c23)C[C@H](CN2CC3(C2)OCc2cc(N4CC5(CNC5)C4)ccc23)O1 [Example 12, 4-[(2S,6R)-2-[[6-(2,6-diazaspiro[3.3]heptan-2-yl)spiro[1H-isobenzofuran-3,3′-azetidine]-1′-yl]methyl]-6-methyl-morpholin-4-yl]-3-fluoro-pyrazolo[1,5-a]pyridine-7-carbonitrile]
The IC50 of the first is 2.3-fold lower: 0.045 µM for the first, 0.103 µM for the second.

First: C[C@@H]1CN(c2ccc(C#N)n3ncc(F)c23)C[C@H](CN2CC3(C2)OCc2cc(N[C@H]4CNC[C@H]4F)ccc23)O1 [Example 3, 3-fluoro-4-[(2S,6R)-2-[[6-[[(3S,4R)-4-fluoropyrrolidin-3-yl]amino]spiro[1H-isobenzofuran-3,3′-azetidine]-1′-yl]methyl]-6-methyl-morpholin-4-yl]pyrazolo[1,5-a]pyridine-7-carbonitrile]
Second: C[C@@H]1CN(c2ccc(C#N)n3ncc(F)c23)C[C@H](CN2CC3(C2)OCc2cc(N4CC(N)C4)ccc23)O1 [Example 9, 4-[(2S,6R)-2-[[6-(3-aminoazetidin-1-yl)spiro[1H-isobenzofuran-3,3′-azetidine]-1′-yl]methyl]-6-methyl-morpholin-4-yl]-3-fluoro-pyrazolo[1,5-a]pyridine-7-carbonitrile]
The IC50 of the first is 1.8-fold lower: 0.047 µM for the first, 0.084 µM for the second. The first is the more potent here.

C[C@@H]1CN(c2ccc(C#N)n3ncc(F)c23)C[C@H](CN2CC3(C2)OCc2cc(N4CC5(CNCCO5)C4)ccc23)O1 [Example 4, 3-fluoro-4-[(2R,6S)-2-methyl-6-[[6-(5-oxa-2,8-diazaspiro[3.5]nonan-2-yl)spiro[1H-isobenzofuran-3,3′-azetidine]-1′-yl]methyl]morpholin-4-yl]pyrazolo[1,5-a]pyridine-7-carbonitrile] and C[C@@H]1CN(c2ccc(C#N)n3nccc23)C[C@H](CN2CC3(C2)OCc2cc(N4CC5(CNCCO5)C4)ccc23)O1 [Example 7, 4-[(2R,6S)-2-methyl-6-[[6-(5-oxa-2,8-diazaspiro[3.5]nonan-2-yl)spiro[1H-isobenzofuran-3,3′-azetidine]-1′-yl]methyl]morpholin-4-yl]pyrazolo[1,5-a]pyridine-7-carbonitrile] are within 1.5-fold of each other in IC50: 0.096 µM for the first, 0.068 µM for the second.

C[C@@H]1CN(c2ccc(C#N)n3ncc(F)c23)C[C@H](CN2CC3(C2)OCc2cc(N4CCNCC4)ccc23)O1 [Example 6, 3-fluoro-4-[(2R,6S)-2-methyl-6-[(6-piperazin-1-ylspiro[1H-isobenzofuran-3,3′-azetidine]-1′-yl)methyl]morpholin-4-yl]pyrazolo[1,5-a]pyridine-7-carbonitrile] and C[C@@H]1CN(c2ccc(C#N)n3ncc(F)c23)C[C@H](CN2CC3(C2)OCc2cc(N4C[C@H](N)[C@@H](O)C4)ccc23)O1 [Example 10, 4-[(2S,6R)-2-[[6-[(3S,4S)-3-amino-4-hydroxy-pyrrolidin-1-yl]spiro[1H-isobenzofuran-3,3′-azetidine]-1′-yl]methyl]-6-methyl-morpholin-4-yl]-3-fluoro-pyrazolo[1,5-a]pyridine-7-carbonitrile] are within 1.5-fold of each other in IC50: 0.09 µM for the first, 0.061 µM for the second.

First: C[C@@H]1CN(c2cc(=O)n(C)c3ncccc23)C[C@H](CN2CC3(C2)OCc2cc(N4CC(N)C4)ccc23)O1 [Example 13, 4-[(2S,6R)-2-[[6-(3-aminoazetidin-1-yl)spiro[1H-isobenzofuran-3,3′-azetidine]-1′-yl]methyl]-6-methyl-morpholin-4-yl]-1-methyl-1,8-naphthyridin-2-one]
Second: C[C@@H]1CN(c2ccc(C#N)n3nccc23)C[C@H](CN2CC3(C2)OCc2cc(N4CC(N)C4)ccc23)O1 [Example 19, 4-[(2S,6R)-2-[[6-(3-aminoazetidin-1-yl)spiro[1H-isobenzofuran-3,3′-azetidine]-1′-yl]methyl]-6-methyl-morpholin-4-yl]pyrazolo[1,5-a]pyridine-7-carbonitrile]
The IC50 of the first is 1.9-fold higher: 0.068 µM for the first, 0.036 µM for the second. The second is the more potent here.

[2H]c1ccc2c(N3C[C@H](CN4CC5(C4)OCc4cc(N6C[C@@H](N)[C@H](OC)C6)ccc45)O[C@H](C)C3)ccc(C#N)c2n1 [Example 16, 5-[(2S,6R)-2-[[6-[(3R,4R)-3-amino-4-methoxy-pyrrolidin-1-yl]spiro[1H-isobenzofuran-3,3′-azetidine]-1′-yl]methyl]-6-methyl-morpholin-4-yl]-2-deuterio-quinoline-8-carbonitrile] and [2H]c1ccc2c(N3C[C@H](CN4CC5(C4)OCc4cc(N6C[C@H]7NCCO[C@@H]7C6)ccc45)O[C@H](C)C3)ccc(C#N)c2n1 [Example 17, 5-[(2S,6R)-2-[[6-[(4aR,7aR)-3,4,4a,5,7,7a-hexahydro-2H-pyrrolo[3,4-b][1,4]oxazin-6-yl]spiro[1H-isobenzofuran-3,3′-azetidine]-1′-yl]methyl]-6-methyl-morpholin-4-yl]-2-deuterio-quinoline-8-carbonitrile] are the same in IC50: 0.032 µM for the first, 0.032 µM for the second.

[2H]c1ccc2c(N3C[C@H](CN4CC5(C4)OCc4cc(N6CCNCC6)ccc45)O[C@H](C)C3)ccc(C#N)c2n1 [Example 18, 2-deuterio-5-[(2R,6S)-2-methyl-6-[(6-piperazin-1-ylspiro[1H-isobenzofuran-3,3′-azetidine]-1′-yl)methyl]morpholin-4-yl]quinoline-8-carbonitrile] and [2H]c1ccc2c(N3C[C@H](CN4CC5(C4)OCc4cc(N6CC(N)C6)cnc45)O[C@H](C)C3)ccc(C#N)c2n1 [Example 20, 5-[(2S,6R)-2-[[3-(3-aminoazetidin-1-yl)spiro[5H-furo[3,4-b]pyridine-7,3′-azetidine]-1′-yl]methyl]-6-methyl-morpholin-4-yl]-2-deuterio-quinoline-8-carbonitrile] are the same in IC50: 0.032 µM for the first, 0.032 µM for the second.

For [2H]c1ccc2c(N3C[C@H](CN4CC5(C4)OCc4cc(N6CC(C)(N)C6)cnc45)O[C@H](C)C3)ccc(C#N)c2n1 [Example 21, 5-[(2S,6R)-2-[[3-(3-amino-3-methyl-azetidin-1-yl)spiro[5H-furo[3,4-b]pyridine-7,3′-azetidine]-1′-yl]methyl]-6-methyl-morpholin-4-yl]-2-deuterio-quinoline-8-carbonitrile], the IC50 was 0.055 µM.

— patent US12421252B2, “Spiro (isobenzofuranazetidine) compounds for the treatment of autoimmune disease” (Hoffmann-La Roche Inc., priority 2020, dated 2025)
